Assay results published in PubChem BioAssay (NCI).
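96-well plates; 48 h exposure; 5 concentrations. Endpoints by linear interpolation between flanking doses. Not reached: highest tested concentration assigned. The concentration for full growth arrest is given as TGI.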

How the values were obtained:
Experiment in all cases: inhibition of tumour cell growth, NCI panel, 48 h
CCRF-CEM leukemia = system: CCRF-CEM leukemia
COLO 205 colon = system: COLO 205 colon
HCT-15 colon = system: HCT-15 colon
HL-60(TB) leukemia = system: HL-60(TB) leukemia
HOP-62 NSCLC = system: HOP-62 NSCLC
IGROV1 ovarian = system: IGROV1 ovarian
KM12 colon = system: KM12 colon
M14 melanoma = system: M14 melanoma
MDA-N = system: MDA-N
NCI-H226 lung = system: NCI-H226 lung
RPMI-8226 leukemia = system: RPMI-8226 leukemia
SF-268 CNS = system: SF-268 CNS
SK-MEL-2 melanoma = system: SK-MEL-2 melanoma
SK-MEL-5 melanoma = system: SK-MEL-5 melanoma
SK-OV-3 ovarian = system: SK-OV-3 ovarian
SN12C renal = system: SN12C renal
SR leukemia = system: SR leukemia
SW-620 colon = system: SW-620 colon
TK-10 renal = system: TK-10 renal
A498 renal = system: A498 renal

Row | SMILES | TGI (CCRF-CEM leukemia) [µM] | TGI (COLO 205 colon) [µM] | TGI (HCT-15 colon) [µM] | TGI (HL-60(TB) leukemia) [µM] | TGI (HOP-62 NSCLC) [µM] | TGI (IGROV1 ovarian) [µM] | TGI (KM12 colon) [µM] | TGI (M14 melanoma) [µM] | TGI (MDA-N) [µM] | TGI (NCI-H226 lung) [µM] | TGI (RPMI-8226 leukemia) [µM] | TGI (SF-268 CNS) [µM] | TGI (SK-MEL-2 melanoma) [µM] | TGI (SK-MEL-5 melanoma) [µM] | TGI (SK-OV-3 ovarian) [µM] | TGI (SN12C renal) [µM] | TGI (SR leukemia) [µM] | TGI (SW-620 colon) [µM] | TGI (TK-10 renal) [µM] | TGI (A498 renal) [µM]
1 | Cc1cc(=O)oc2c(CNC(CO)C(=O)O)c(O)ccc12 (stereo not given) | > 100 | > 100 | > 100 | > 100 | > 100 | > 100 | > 100 | > 100 | > 100 | > 100 | > 100 | > 100 | > 100 | > 100 | > 100 | > 100 | > 100 | > 100 | > 100 | 
2 | CCC1(CC)C(=O)N(C(=O)c2ccccc2)N(C(=O)c2ccc(Cl)cc2)C1=O | 51.3 | > 75 | > 75 | > 75 | > 75 | > 75 | > 75 | > 75 | > 75 | > 75 | > 75 | > 75 | > 75 | > 75 | > 75 | > 75 | 53.6 | > 75 | > 75 | 
3 | Cc1c2c(nc3ccccc13)C(=O)c1cccnc1C2=O | > 100 | 48.7 | > 100 | 41.4 | > 100 | > 100 | > 100 | 48.8 | 3.16 | > 100 | > 100 | > 100 |  | 1.48 | > 100 | > 100 | 65.6 | > 100 | > 100 | 
4 | CCCC1CC(=O)NC(=O)C1C(=O)OC(C)(C)C (stereo not given) |  | > 100 | > 100 | > 100 | > 100 | > 100 | > 100 |  | > 100 | > 100 | > 100 | > 100 | > 100 | > 100 |  | > 100 | > 100 | > 100 | > 100 | > 100
5 | CC(=O)OCC1OC(c2c(OC(C)=O)cc(C)c3c(=O)cc(/C(C(C)=O)=C(\C)O)oc23)C(OC(C)=O)C(OC(C)=O)C1OC(C)=O (stereo not given) | > 100 | > 100 | > 100 | > 100 | > 100 | > 100 | > 100 | > 100 | > 100 | > 100 | > 100 | > 100 | > 100 | > 100 | > 100 | > 100 | > 100 | > 100 | > 100 | 
6 | O=[N+]([O-])c1cccc(-c2ncc3c(n2)-c2ccccc2C3)c1 | > 100 | > 100 | > 100 | > 100 |  | > 100 | > 100 | > 100 | > 100 | > 100 | > 100 | > 100 | > 100 | > 100 | > 100 | > 100 | > 100 | > 100 | > 100 | 
7 | COc1cc(C2OC(N)=C(C#N)C3=C2C(C)CCC3)cc(OC)c1OC (stereo not given) | > 100 | > 100 | > 100 | > 100 | 40.7 | > 100 | > 100 | > 100 | > 100 | > 100 | > 100 | > 100 | > 100 | > 100 | > 100 | > 100 | > 100 | > 100 | > 100 | 
8 | Cc1cc(C)nc(NS(=O)(=O)c2ccc(Nc3c4ccccc4nc4c(C(=O)NC(CO)(CO)CO)cccc34)cc2)n1 | 58.9 | 42.6 | > 100 | 97.9 | > 100 | > 100 | 36.4 | > 100 | 68.8 |  | 91.8 | > 100 | 44.4 | 44.5 | > 100 | > 100 | 67.2 | > 100 | 68.9 | > 100
9 | O=c1cc(NNCc2ccccc2)[nH]c(=O)[nH]1 | > 100 | > 100 | > 100 | > 100 | > 100 | > 100 | > 100 | > 100 | > 100 | > 100 | > 100 | > 100 |  | > 100 |  | > 100 | > 100 | > 100 | > 100 | > 100
10 | CCOC(=O)CC1(Cc2ccc(OCc3ccccc3)cc2)C(=O)OC(c2ccccc2)N1C(=O)c1ccccc1 (stereo not given) | > 100 | > 100 | > 100 | > 100 | > 100 | > 100 | > 100 | > 100 | > 100 | > 100 | > 100 | > 100 | > 100 | > 100 | > 100 | > 100 | > 100 | > 100 | > 100 | 
